The target in assay [1] is Botulinum neurotoxin type A (Clostridium botulinum, UniProt P0DPI0). Description: Inhibition of protease activity of recombinant full length Clostridium botulinum Hall BoNT/A light chain using SNAP-25 peptide (187 to 203 residues) as substrate after 5 mins by HPLC analysis. More on the design: species or system Clostridium botulinum A str. Hall.
For assay [2], the target named is Botulinum neurotoxin type A (Clostridium botulinum) (UniProt P0DPI0). Description: Inhibition of Clostridium botulinum Hall BoNT/A light chain-induced paralysis in CD1 mouse phrenic nerve diaphragm assessed as compound concentration required to cause delay in time to 50% loss of twitch tension evoked by nerve stimulation preincubated with BoNT/A light chain for 15 to 20 mins followed by addition to diaphragm. Particulars: Clostridium botulinum A str. Hall.
Sequence of Botulinum neurotoxin type A (Clostridium botulinum) (P0DPI0 2-448 limits assumed): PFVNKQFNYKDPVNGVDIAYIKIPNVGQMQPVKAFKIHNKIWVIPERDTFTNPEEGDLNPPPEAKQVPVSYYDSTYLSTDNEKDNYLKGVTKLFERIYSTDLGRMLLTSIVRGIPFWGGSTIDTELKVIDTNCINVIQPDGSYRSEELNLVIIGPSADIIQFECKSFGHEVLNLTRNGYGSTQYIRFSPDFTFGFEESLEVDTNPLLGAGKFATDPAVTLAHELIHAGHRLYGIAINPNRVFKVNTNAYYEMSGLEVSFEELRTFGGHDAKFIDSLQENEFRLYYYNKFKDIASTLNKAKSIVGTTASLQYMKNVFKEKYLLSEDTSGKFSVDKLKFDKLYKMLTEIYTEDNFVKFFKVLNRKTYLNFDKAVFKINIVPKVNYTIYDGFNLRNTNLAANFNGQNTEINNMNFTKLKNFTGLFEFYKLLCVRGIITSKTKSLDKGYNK

Assay [3] has the same target. Put plainly: Inhibition of Clostridium botulinum Hall BoNT/A light chain-induced paralysis in CD1 mouse phrenic nerve diaphragm assessed as compound concentration required to cause delay in time to 50% loss of twitch tension evoked by nerve stimulation at 20 uM preincubated with BoNT/A light chain for 15 to 20 mins followed by addition to diaphragm. As to conditions: Clostridium botulinum A str. Hall.

The source made the active and inactive calls. The calls are words filed in the database; no cut-off is given here.

Sequence of Botulinum neurotoxin type A (P0DPI0 2-448 limits assumed): as above

Turning to `Cc1ccc2ccc(C(Nc3ccccn3)c3ccc(F)cc3F)c(O)c2n1` (stereo not drawn), the IC50 in assay [1] amounted to 2.7 µM. In assay [2], the Activity amounted to 20 µM.

As for `Oc1c(C(Nc2cccnc2)c2ccc(F)cc2)cc(Cl)c2cccnc12` (stereo not drawn), the IC50 in assay [1] is 2.3 µM. Moreover, the Activity in assay [2] turned out to be 2 µM.

In the case of `Oc1cccc2cccnc12` [OXYQUINOLINE], in assay [1], the IC50 is 3.9 µM.

Consider `Oc1c(C(Nc2ccccn2)c2ccccc2)ccc2cccnc12` (stereo not drawn), for which, in assay [2], the Activity stood at 10 µM.

`Oc1c(C(Nc2ccccn2)c2ccccc2)cc(Cl)c2cccnc12` (stereo not drawn): the IC50 in assay [1] was 1.5 µM. For the same compound, in assay [2], the Activity amounted to 2 µM.

As to `Oc1ccc(Cl)c2cccnc12` [CLOXYQUIN], the IC50 in assay [1] was 1.9 µM.

Consider `Oc1c(C(Nc2cccnc2)c2ccccc2F)cc(Cl)c2cccnc12` (stereo not drawn), for which, in assay [1], the IC50 was 0.7 µM. The Activity in assay [2] was 2 µM.

`Oc1c(C(Nc2ccccn2)c2ccccc2F)cc(Cl)c2cccnc12` (stereo not drawn): in assay [1], the 50% inhibitory concentration (IC50) worked out at 1.4 µM. The Activity in assay [2] was found to be 20 µM.

For `Oc1c(C(Nc2ccccn2)c2ccc(F)cc2)ccc2cccnc12` (stereo not drawn), the IC50 in assay [1] was 4.1 µM. In addition, in assay [2], the Activity came to 2 µM.

Turning to `Oc1c(C(Nc2ncccn2)c2ccc(F)cc2F)cc(Cl)c2cccnc12` (stereo not drawn), the inhibition result in assay [3] is “inactive”. In assay [1], the half-maximal inhibitory concentration (IC50) was found to be 2.2 µM.

Regarding `Oc1c(C(Nc2cccnc2)c2ccccc2)ccc2cccnc12` (stereo not drawn), the IC50 in assay [1] was 6.2 µM. In addition, the Activity in assay [2] was found to be 20 µM.

Regarding `Cc1ccc2ccc(C(Nc3ncccn3)c3ccc(F)cc3)c(O)c2n1` (stereo not drawn), in assay [1], the IC50 came to 4.2 µM. In assay [2], the Activity was 20 µM.

In the case of `Nc1cccnc1`, the concentration for half-maximal inhibition (IC50) in assay [1] was 3.3 µM.

Turning to `Oc1c(C(Nc2ncccn2)c2ccc(F)cc2F)ccc2cccnc12` (stereo not drawn), the inhibition entry in assay [3] was “inactive”. In assay [1], the IC50 came to 12.7 µM.

Consider `Cc1ccc2ccc(C(Nc3ccccn3)c3ccccc3F)c(O)c2n1` (stereo not drawn), for which, in assay [1], the IC50 came out at 1.4 µM. In assay [2], the Activity stood at 2 µM.

For `Oc1c(C(Nc2cccnc2)c2ccccc2F)ccc2cccnc12` (stereo not drawn), the Activity in assay [2] stood at 10 µM.

With `Cc1ccc2ccc(C(Nc3ncccn3)c3ccc(F)cc3F)c(O)c2n1` (stereo not drawn), in assay [3], the inhibition entry is “inactive”. The IC50 in assay [1] is 4.3 µM.

As for `Oc1c(C(Nc2ncccn2)c2ccccc2)ccc2cccnc12` (stereo not drawn), the inhibition entry in assay [3] was “inactive”. Also, in assay [1], the IC50 turned out to be 2.7 µM.

With `Oc1c(C(Nc2cccnc2)c2ccccc2)cc(Cl)c2cccnc12` (stereo not drawn), the IC50 in assay [1] was found to be 3.5 µM. Moreover, in assay [2], the Activity stood at 2 µM.

For `Nc1ccccn1` [2-AMINOPYRIDINE], the IC50 in assay [1] worked out at 1.8 µM.

Turning to `O=Cc1ccccc1F`, in assay [1], the IC50 turned out to be 2.8 µM.

For `Oc1c(C(Nc2cccnc2)c2ccc(F)cc2F)ccc2cccnc12` (stereo not drawn), the IC50 in assay [1] is 4.4 µM. Further, in assay [2], the Activity worked out at 20 µM.

Take `Oc1c(C(Nc2ncccn2)c2ccccc2F)cc(Cl)c2cccnc12` (stereo not drawn): the IC50 in assay [1] was 4 µM. For the same compound, the Activity in assay [2] amounted to 2 µM.

Regarding `O=Cc1ccc(F)cc1`, the IC50 in assay [1] was found to be 2.3 µM.

Take `O=Cc1ccccc1` [BENZALDEHYDE]: the IC50 in assay [1] is 2.9 µM.

`Oc1c(C(Nc2cccnc2)c2ccc(F)cc2F)cc(Cl)c2cccnc12` (stereo not drawn): in assay [1], the IC50 came out at 0.6 µM. For the same compound, in assay [2], the Activity came out at 20 µM.

Take `Nc1ncccn1`: the IC50 in assay [1] is 4.6 µM.

In the case of `Cc1ccc2ccc(C(Nc3cccnc3)c3ccc(F)cc3F)c(O)c2n1` (stereo not drawn), the IC50 in assay [1] was determined as 12.3 µM. In addition, the Activity in assay [2] is 2 µM.

Consider `Oc1c(C(Nc2cccnc2)c2ccc(F)cc2)ccc2cccnc12` (stereo not drawn), for which the IC50 in assay [1] worked out at 4.6 µM. Also, the Activity in assay [2] came to 2 µM.

`Oc1c(C(Nc2ncccn2)c2ccccc2F)ccc2cccnc12` (stereo not drawn): the inhibition entry in assay [3] is “inactive”. Besides, the IC50 in assay [1] turned out to be 1.9 µM.

For the compound `Oc1c(C(Nc2ncccn2)c2ccc(F)cc2)cc(Cl)c2cccnc12` (stereo not drawn), in assay [1], the IC50 turned out to be 0.7 µM. For the same compound, the Activity in assay [2] amounted to 20 µM.

Consider `Cc1ccc2ccc(C(Nc3cccnc3)c3ccc(F)cc3)c(O)c2n1` (stereo not drawn), for which, in assay [2], the Activity stood at 20 µM.

Turning to `Cc1ccc2cccc(O)c2n1` [8-HYDROXY QUINALDINE], the IC50 in assay [1] stood at 3.9 µM.

For the compound `O=Cc1ccc(F)cc1F`, the IC50 in assay [1] was determined as 4.9 µM.

Take `Oc1c(C(Nc2ccccn2)c2ccc(F)cc2F)ccc2cccnc12` (stereo not drawn): the IC50 in assay [1] was 3.6 µM. Further, the Activity in assay [2] is 20 µM.

Consider `Oc1c(C(Nc2ccccn2)c2ccc(F)cc2F)cc(Cl)c2cccnc12` (stereo not drawn), for which the IC50 in assay [1] was 0.7 µM. Further, in assay [2], the Activity came to 20 µM.

As to `Cc1ccc2ccc(C(Nc3ncccn3)c3ccccc3)c(O)c2n1` (stereo not drawn), the inhibition result in assay [3] was “inactive”. For the same compound, the IC50 in assay [1] stood at 4.6 µM.

`Oc1c(C(Nc2ccccn2)c2ccccc2F)ccc2cccnc12` (stereo not drawn): the IC50 in assay [1] is 1.2 µM. Moreover, the Activity in assay [2] came to 20 µM.

For `Cc1ccc2ccc(C(Nc3cccnc3)c3ccccc3F)c(O)c2n1` (stereo not drawn), in assay [1], the IC50 is 0.7 µM. Further, in assay [2], the Activity is 20 µM.

On to `Cc1ccc2ccc(C(Nc3ncccn3)c3ccccc3F)c(O)c2n1` (stereo not drawn), for which, in assay [3], the inhibition result is “inactive”. The IC50 in assay [1] worked out at 12 µM.

With `Oc1c(C(Nc2ncccn2)c2ccccc2)cc(Cl)c2cccnc12` (stereo not drawn), the IC50 in assay [1] amounted to 4.5 µM. In assay [2], the Activity is 2 µM.

Regarding `Oc1c(C(Nc2ccccn2)c2ccc(F)cc2)cc(Cl)c2cccnc12` (stereo not drawn), the IC50 in assay [1] was 0.6 µM. Also, the Activity in assay [2] came out at 20 µM.

With `Cc1ccc2ccc(C(Nc3ccccn3)c3ccccc3)c(O)c2n1` (stereo not drawn), the IC50 in assay [1] amounted to 0.7 µM. For the same compound, the Activity in assay [2] was 2 µM.

In the case of `Cc1ccc2ccc(C(Nc3cccnc3)c3ccccc3)c(O)c2n1` (stereo not drawn), the Activity in assay [2] is 20 µM.

Regarding `Oc1c(C(Nc2ncccn2)c2ccc(F)cc2)ccc2cccnc12` (stereo not drawn), in assay [1], the IC50 was determined as 1.7 µM. Further, in assay [2], the Activity was determined as 20 µM.

Turning to `Cc1ccc2ccc(C(Nc3ccccn3)c3ccc(F)cc3)c(O)c2n1` (stereo not drawn), in assay [1], the IC50 is 1.6 µM. Further, the Activity in assay [2] turned out to be 20 µM.

These data come from ChEMBL document CHEMBL4000225, “A matrix-focused structure-activity and binding site flexibility study of quinolinol inhibitors of botulinum neurotoxin serotype A” (Bioorg Med Chem Lett, 2017).
